# Results reported in US6420367B1, “Pyrimidine derivatives exhibiting antitumor activity” (Shionogo & Co., Ltd., priority 1998, dated 2002).
# Columns and labels:
# [1] = test system: DT-C cells (pGV-P-transfected v-ki-ras-transformed NIH3T3 cells); test: Luciferase activity in control DT-C cells (IC50-C): non-specific transcription-inhibitory effect or cytotoxicity; format: cell-based, mouse; conditions: tested concentration nearest to 50% inhibition in DT-C cells, index of non-specific transcription inhibition or cytotoxicity
# Procedure, shortened: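 Luciferase from an SV40 minimal promoter was read in DT-C cells (2500 cells/well) 24 h after compound addition at […] to 0.51 ng/ml in 3-fold steps. IC50-C is the tested concentration nearest 50% inhibition.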
# [2] = test system: DT-R cells (pRRE3-luc-transfected v-ki-ras-transformed NIH3T3 cells); signal derived from Ras oncogene products; test: Inhibitory effect against cellular signaling derived from Ras oncogene products: luciferase reporter, dissociation of DT-R from DT-C activity (MAC); format: cell-based, mouse; conditions: minimal tested concentration at which luciferase activities of DT-C cells and DT-R cells dissociated
# Procedure, shortened: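 Value is a minimal active concentration: lowest dose where Ras-responsive reporter (DT-R) luciferase diverges from SV40-minimal-promoter control (DT-C). Both transfected v-Ki-ras NIH3T3 lines received 3-fold serial dilutions for 24 h at 37 °C in 10% FCS medium before lysis and luminometry.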
# [3] = test system: human squamous lung cancer RERF-RC-AI; test: In vitro cell growth inhibition test, MTT assay; format: cell-based; conditions: MTT assay 4 days after compound addition
# Procedure, shortened: (§1)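 MTT read-out; human cancer cell panel (lung squamous, lung adeno, colon, plus pancreas PANC-1).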
# [4] = test system: human lung adenocarcinoma A549; test: In vitro cell growth inhibition test, MTT assay; format: cell-based; conditions: MTT assay 4 days after compound addition
# Procedure, shortened: as §1
# [5] = test system: human pancreas cancer PANC-1; test: In vitro cell growth inhibition test, MTT assay; format: cell-based; conditions: MTT assay 4 days after compound addition
# Procedure, shortened: as §1
# human colon cancer HT29 = test: In vitro cell growth inhibition test, MTT assay; format: cell-based; conditions: MTT assay 4 days after compound addition
# Procedure, shortened: as §1
# [6] = test system: human squamous lung cancer Ma44; test: In vitro cell growth inhibition test, MTT assay; format: cell-based; conditions: MTT assay 4 days after compound addition
# Procedure, shortened: as §1
# human lung cancer Ma44 = test: Evaluation of in vivo antitumor efficacy, tumor growth inhibition; parameters: species or system mouse; conditions: Ma44 in Balb/c nude mice; 30 mg/kg orally daily for 14 days; P<0.01
# Text: (§2) Test Example 3 Evaluation of in Vivo Antitumor Efficacy
# (§3) Murine colon cancer Colon 26, human lung cancer RERF-LC-AI and human lung cancer Ma44 were used. Murine- and human-derived tumor cells were maintained by serial transplantation in Balb/c and Balb/c nude mice, respectively. After tumor implantation, compound A-42 suspended in 5% methylcellulose solution were orally administered daily for 14 days. Tumor size (short diameter and long diameter) was scored throughout the experiment and tumor volume was calculated. Antitumor efficacy was evaluated as growth inhibition which was estimated by Treated/Control ratio and shown as % inhibition.
# [7] = test system: Murine colon cancer Colon 26; test: as above; parameters: species or system mouse; conditions: Colon 26 in Balb/c mice; 30 mg/kg orally daily for 14 days; P<0.01
# Text: as §2, §3
# [8] = test system: human lung cancer RERF-LC-AI; test: as above; conditions: RERF-LC-AI in Balb/c nude mice; 30 mg/kg orally daily for 14 days; P<0.01
# Text: as §2, §3
SMILES,melting point [°C],"IC50 ([1]; Mus musculus, NIH3T3) [µg/mL]",MAC (Minimal Active Concentration) [2] [µg/mL],"IC50 ([3]; Homo sapiens, 96 h, read-out: IC50, RERF-LC-AI) [µg/mL]","IC50 ([4]; Homo sapiens, A549, 96 h) [µg/mL]","IC50 ([5]; Homo sapiens, PANC-1, 96 h) [µg/mL]","IC50 (human colon cancer HT29; Homo sapiens, HT-29, 96 h) [µg/mL]","IC50 ([6]; Homo sapiens, 96 h) [µg/mL]","Growth inhibition (Treated/Control ratio, shown as % inhibition) (human lung cancer Ma44) [%]","Growth inhibition (Treated/Control ratio, shown as % inhibition) [7] [%]","Growth inhibition (Treated/Control ratio, shown as % inhibition) [8] [%]",IC50-C [1] [µg/mL],"IC50, RERF-LC-AI [3] [ng/mL]","IC50, HT29 (human colon cancer HT29) [ng/mL]","IC50, Ma44 [6] [ng/mL]","IC50, A549 [4] [ng/mL]","IC50, PANC-1 [5] [ng/mL]"
CCN/C(=N\c1nc(C)ncc1CSc1nnc(-c2ccc([N+](=O)[O-])cc2)o1)SC [Compound G-1],156 to 157,> 10,0.370,0.046,0.063,0.051,0.052,0.056,–,–,–,–,–,–,–,–,–
CCNC(=Nc1nc(C)ncc1CSc1nnc(-c2ccc(N)cc2)o1)NCC [Compound A-42],–,–,0.0137,–,–,–,–,–,66,70,74,>10,8.3,11,49,–,–
CCCNC(=Nc1nc(CC)ncc1CSc1nnc(-c2ccc(F)cc2N)o1)NCCC [Compound A-140],–,–,0.0137,–,–,–,–,–,–,–,–,3.33,15,13,47,22,12
CNC(=Nc1nc(C)ncc1CSc1nnc(-c2ccc([N+](=O)[O-])cc2)o1)NC(C)C [Compound A-170],–,–,<0.000508,–,–,–,–,–,–,–,–,>10,2.7,7.7,5.4,14,6.5
CCCCNC(=Nc1nc(C)ncc1CSc1nnc(-c2ccc([N+](=O)[O-])cc2)o1)NCC [Compound A-136],–,–,0.0137,–,–,–,–,–,–,–,–,3.33,12,11,16,31,16
CCNC(=Nc1nc(C)ncc1CSc1nnc(-c2ccc([N+](=O)[O-])cc2)o1)NCC.Cl [Compound A-187],–,–,0.0137,–,–,–,–,–,–,–,–,>10,12,13,17,25,14
CNC(=Nc1nc(C)ncc1CSc1nnc(-c2ccc([N+](=O)[O-])cc2)o1)NC [Compound A-145],–,–,0.0412,–,–,–,–,–,–,–,–,>10,5,7,32,90,14
CCNC(=Nc1nc(C)ncc1CSc1nnc(-c2ccc(N)cc2)o1)NC [Compound A-168],–,–,0.0412,–,–,–,–,–,–,–,–,>10,2.8,5.5,17,12,5.9
CCNC(=Nc1nc(C)ncc1CSc1nnc(-c2ccc(N)cc2)o1)NCC.Cl.Cl [Compound A-186],–,–,0.0412,–,–,–,–,–,–,–,–,>10,14,14,57,48,17
CCNC(=Nc1nc(C)ncc1CSc1nnc(-c2ccc([N+](=O)[O-])cc2OC)o1)NCC [Compound A-161],–,–,0.0412,–,–,–,–,–,–,–,–,>10,6.8,5.5,7.1,12,5.3
CNC(=Nc1ncncc1CSc1nnc(-c2ccc(N)cc2)o1)NC [Compound A-174],–,–,0.37,–,–,–,–,–,–,–,–,>10,6.7,12,76,32,14
CCc1ncc(CSc2nnc(-c3ccc(N)cc3)o2)c(N=C(NC)NC)n1 [Compound A-153],–,–,0.0412,–,–,–,–,–,–,–,–,>10,11,15,89,67,22
CCNC(=Nc1nc(C)ncc1CSc1nnc(-c2ccc(N)cc2)o1)NC(C)C [Compound A-182],–,–,0.0137,–,–,–,–,–,–,–,–,3.3,5.6,11,16,14,7.3
CCNC(=Nc1nc(C)ncc1CSc1nnc(-c2ccc(Cl)cc2Cl)o1)NCC [Compound A-80],–,–,0.370,–,–,–,–,–,–,–,–,3.33,18,24,62,100,50
CCc1ncc(CSc2nnc(-c3ccc([N+](=O)[O-])cc3)o2)c(N=C(NC)NC)n1 [Compound A-152],–,–,0.123,–,–,–,–,–,–,–,–,>10,6,82,39,69,13
CCCNC(=Nc1nc(C)ncc1CSc1nnc(-c2ccc(N)cc2)o1)NCCC [Compound A-144],–,–,0.0137,–,–,–,–,–,–,–,–,>10,7,6,31,19,16
CCCNC(=Nc1nc(CC)ncc1CSc1nnc(-c2ccc([N+](=O)[O-])cc2)o1)NCC [Compound A-149],–,–,0.123,–,–,–,–,–,–,–,–,3.33,26,34,85,25,41
CCNC(=Nc1nc(C)ncc1CSc1nnc(-c2ccc(O)cc2)o1)NCC [Compound A-88],–,–,0.123,–,–,–,–,–,–,–,–,>10,20,43,97,140,36
CCCNC(=Nc1nc(C)ncc1CSc1nnc(-c2ccc(Cl)cc2)o1)NCCC [Compound A-142],–,–,0.0412,–,–,–,–,–,–,–,–,1.11,18,32,21,38,15
CCNC(=Nc1ncncc1CSc1nnc(-c2ccncc2N)o1)NCC [Compound D-37],–,–,0.123,–,–,–,–,–,–,–,–,>10,11,15,24,28,13
